Test results taken from the NIST ThermoML archive (doi:10.1021/je900482x).

Test: isobaric coefficient of expansion
Conditions: Liquid, Microcalorimeter

CCn1cc[n+](C)c1.O=S(=O)([N-]S(=O)(=O)C(F)(F)F)C(F)(F)F
isobaric coefficient of expansion
Conditions	5000 kPa	10000 kPa	15000 kPa	20000 kPa	25000 kPa	30000 kPa	35000 kPa	40000 kPa	45000 kPa	50000 kPa
278.15 K	0.00067 1/K	0.000659 1/K	0.000651 1/K	0.000645 1/K	0.000634 1/K	0.000628 1/K	0.000623 1/K	0.000612 1/K	0.000606 1/K	0.0006 1/K
288.15 K	0.000664 1/K	0.000653 1/K	0.000646 1/K	0.00064 1/K	0.000631 1/K	0.000623 1/K	0.000616 1/K	0.000606 1/K	0.000601 1/K	0.000597 1/K
298.15 K	0.000659 1/K	0.000651 1/K	0.000641 1/K	0.000633 1/K	0.000624 1/K	0.000617 1/K	0.000606 1/K	0.0006 1/K	0.000595 1/K	0.000589 1/K
308.15 K	0.000656 1/K	0.000644 1/K	0.000637 1/K	0.000627 1/K	0.000618 1/K	0.000611 1/K	0.000605 1/K	0.000597 1/K	0.000589 1/K	0.000581 1/K
318.15 K	0.000649 1/K	0.000644 1/K	0.000634 1/K	0.000623 1/K	0.000615 1/K	0.000607 1/K	0.000599 1/K	0.00059 1/K	0.000582 1/K	0.000576 1/K
328.15 K	0.000645 1/K	0.000635 1/K	0.000628 1/K	0.00062 1/K	0.000609 1/K	0.000601 1/K	0.000593 1/K	0.000584 1/K	0.000576 1/K	0.00057 1/K
338.15 K	0.000643 1/K	0.000633 1/K	0.000624 1/K	0.000614 1/K	0.000604 1/K	0.000598 1/K	0.000588 1/K	0.000582 1/K	0.000574 1/K	0.000569 1/K
348.15 K	0.00064 1/K	0.000629 1/K	0.00062 1/K	0.000612 1/K	0.000602 1/K	0.000595 1/K	0.000588 1/K	0.000579 1/K	0.000572 1/K	0.000565 1/K

CCn1cc[n+](C)c1.F[B-](F)(F)F [1-ethyl-3-methylimidazolium tetrafluoroborate]
isobaric coefficient of expansion
Conditions	5000 kPa	10000 kPa	15000 kPa	20000 kPa	25000 kPa	30000 kPa	35000 kPa	40000 kPa	45000 kPa	50000 kPa
278.15 K	0.000613 1/K	0.000605 1/K	0.000596 1/K	0.000591 1/K	0.000585 1/K	0.00058 1/K	0.000574 1/K	0.000567 1/K	0.00056 1/K	0.000555 1/K
288.15 K	0.000614 1/K	0.000602 1/K	0.000591 1/K	0.000587 1/K	0.000581 1/K	0.000574 1/K	0.000569 1/K	0.000561 1/K	0.000556 1/K	0.000554 1/K
298.15 K	0.000601 1/K	0.000596 1/K	0.000587 1/K	0.00058 1/K	0.000575 1/K	0.000568 1/K	0.000561 1/K	0.000554 1/K	0.000549 1/K	0.000545 1/K
308.15 K	0.000597 1/K	0.000589 1/K	0.000581 1/K	0.000573 1/K	0.000566 1/K	0.000561 1/K	0.000554 1/K	0.00055 1/K	0.000542 1/K	0.000537 1/K
318.15 K	0.000589 1/K	0.000585 1/K	0.000576 1/K	0.000569 1/K	0.000563 1/K	0.000556 1/K	0.00055 1/K	0.000544 1/K	0.000537 1/K	0.000532 1/K
328.15 K	0.000585 1/K	0.000578 1/K	0.000573 1/K	0.000566 1/K	0.000557 1/K	0.00055 1/K	0.000544 1/K	0.000537 1/K	0.000533 1/K	0.000528 1/K
338.15 K	0.000582 1/K	0.000574 1/K	0.000569 1/K	0.00056 1/K	0.000553 1/K	0.000549 1/K	0.00054 1/K	0.000534 1/K	0.000529 1/K	0.000525 1/K
348.15 K	0.000579 1/K	0.000574 1/K	0.000566 1/K	0.000562 1/K	0.000554 1/K	0.000546 1/K	0.00054 1/K	0.000533 1/K	0.000527 1/K	0.000521 1/K

CCCCCCCC[n+]1ccn(C)c1.F[B-](F)(F)F [1-methyl-3-octylimidazolium tetrafluoroborate]
isobaric coefficient of expansion
Conditions	5000 kPa	10000 kPa	15000 kPa	20000 kPa	25000 kPa	30000 kPa	35000 kPa	40000 kPa	45000 kPa	50000 kPa
278.15 K	0.000621 1/K	0.000613 1/K	0.000605 1/K	0.000598 1/K	0.00059 1/K	0.000584 1/K	0.000576 1/K	0.000572 1/K	0.000562 1/K	0.000558 1/K
288.15 K	0.000616 1/K	0.000606 1/K	0.0006 1/K	0.000593 1/K	0.000586 1/K	0.000579 1/K	0.000572 1/K	0.000565 1/K	0.000558 1/K	0.000555 1/K
298.15 K	0.00061 1/K	0.000603 1/K	0.000595 1/K	0.000586 1/K	0.00058 1/K	0.000573 1/K	0.000564 1/K	0.000558 1/K	0.000552 1/K	0.000547 1/K
308.15 K	0.000605 1/K	0.000596 1/K	0.000589 1/K	0.000579 1/K	0.000572 1/K	0.000565 1/K	0.00056 1/K	0.000553 1/K	0.000545 1/K	0.000541 1/K
318.15 K	0.000599 1/K	0.000594 1/K	0.000585 1/K	0.000573 1/K	0.000566 1/K	0.00056 1/K	0.000554 1/K	0.000545 1/K	0.000537 1/K	0.000532 1/K
328.15 K	0.000594 1/K	0.000587 1/K	0.00058 1/K	0.000572 1/K	0.000562 1/K	0.000555 1/K	0.000549 1/K	0.00054 1/K	0.000536 1/K	0.000531 1/K
338.15 K	0.000591 1/K	0.000584 1/K	0.000575 1/K	0.000567 1/K	0.000558 1/K	0.000553 1/K	0.000544 1/K	0.000538 1/K	0.000532 1/K	0.000528 1/K
348.15 K	0.000588 1/K	0.000582 1/K	0.000572 1/K	0.000563 1/K	0.000555 1/K	0.000548 1/K	0.000543 1/K	0.000535 1/K	0.000529 1/K	0.000522 1/K
